ChEMBL document CHEMBL3390847, “Boronic acids in medicinal chemistry: anticancer, antibacterial and antiviral applications” (Medchemcomm, 2010)
Values after ≈ are worked out from the molar mass of the structure shown.

How the values were obtained:
[1] = biological target: T1, Proteasome Macropain subunit MB1 (Homo sapiens, UniProt P28074); test: Inhibition of chymotrypsin-like activity of proteasome beta5 subunit (unknown origin)
T1 sequence (P28074 whole entry): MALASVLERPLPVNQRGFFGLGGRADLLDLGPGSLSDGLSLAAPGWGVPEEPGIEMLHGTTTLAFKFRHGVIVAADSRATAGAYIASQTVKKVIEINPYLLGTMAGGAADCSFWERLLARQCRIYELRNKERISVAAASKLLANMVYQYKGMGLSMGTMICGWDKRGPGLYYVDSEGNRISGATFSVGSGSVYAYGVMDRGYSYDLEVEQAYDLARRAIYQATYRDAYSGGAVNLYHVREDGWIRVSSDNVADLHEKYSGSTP

[2] = biological target: T2, Proteasome subunit beta type-7 (Homo sapiens, UniProt Q99436); test: Inhibition of trypsin-like activity of proteasome beta7 subunit (unknown origin)
T2 sequence (Q99436 whole entry): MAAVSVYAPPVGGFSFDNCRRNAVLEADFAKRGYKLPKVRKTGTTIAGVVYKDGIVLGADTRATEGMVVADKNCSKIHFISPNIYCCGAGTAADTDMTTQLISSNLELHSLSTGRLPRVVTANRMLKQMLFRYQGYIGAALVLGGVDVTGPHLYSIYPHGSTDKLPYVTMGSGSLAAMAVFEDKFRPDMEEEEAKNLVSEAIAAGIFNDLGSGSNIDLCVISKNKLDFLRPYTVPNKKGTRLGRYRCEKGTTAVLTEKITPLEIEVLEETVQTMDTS

[3] = Inhibition of post-glutamyl peptide hydrolysis proteasome subunit (unknown origin); set-up: species or system Homo sapiens
B16 = test: Cytotoxicity against mouse B16 cells; type: functional, cell-based
[4] = Cytotoxicity against human 1-87 cells; type: functional, cell-based
Tubulin [5] = test: Inhibition of tubulin polymerization (unknown origin) after 30 mins; type: protein-complex assay, Homo sapiens
[6] = Inhibition of AmpC beta-lactamase (unknown origin)
[7] = Cytotoxicity against human MCF10A cells; type: cell-based; settings: MCF-10A
[8] = Cytotoxicity against human MCF12A cells; type: cell-based; settings: MCF-12A
Staphylococcus aureus = test: Antimicrobial activity against Staphylococcus aureus […] after 18 hrs by broth macrodilution assay; type: functional
[9] = tested on: Staphylococcus epidermidis; test: Antimicrobial activity against Staphylococcus epidermidis ATCC 12228 after 18 hrs by broth macrodilution assay; type: functional; settings: ATCC 12228, 18 h
Bacillus subtilis = test: Antimicrobial activity against Bacillus subtilis ATCC 23857 after 18 hrs by broth macrodilution assay; type: functional; settings: ATCC 23857, 18 h
Moraxella catarrhalis = test: Antimicrobial activity against Moraxella catarrhalis after 18 hrs by broth macrodilution assay; type: functional
MCF7 = test: Cytotoxicity against human MCF7 cells; type: functional, cell-based
[10] = Inhibition of tubulin polymerization in rat A10 cells assessed as microtubule loss; type: cell-based
[11] = biological target: T3, Epidermal growth factor receptor (Homo sapiens, UniProt P00533); test: Inhibition of EGFR kinase (unknown origin) using poly(Glu:Tyr) as substrate at 1 uM
T3 sequence (P00533 whole entry): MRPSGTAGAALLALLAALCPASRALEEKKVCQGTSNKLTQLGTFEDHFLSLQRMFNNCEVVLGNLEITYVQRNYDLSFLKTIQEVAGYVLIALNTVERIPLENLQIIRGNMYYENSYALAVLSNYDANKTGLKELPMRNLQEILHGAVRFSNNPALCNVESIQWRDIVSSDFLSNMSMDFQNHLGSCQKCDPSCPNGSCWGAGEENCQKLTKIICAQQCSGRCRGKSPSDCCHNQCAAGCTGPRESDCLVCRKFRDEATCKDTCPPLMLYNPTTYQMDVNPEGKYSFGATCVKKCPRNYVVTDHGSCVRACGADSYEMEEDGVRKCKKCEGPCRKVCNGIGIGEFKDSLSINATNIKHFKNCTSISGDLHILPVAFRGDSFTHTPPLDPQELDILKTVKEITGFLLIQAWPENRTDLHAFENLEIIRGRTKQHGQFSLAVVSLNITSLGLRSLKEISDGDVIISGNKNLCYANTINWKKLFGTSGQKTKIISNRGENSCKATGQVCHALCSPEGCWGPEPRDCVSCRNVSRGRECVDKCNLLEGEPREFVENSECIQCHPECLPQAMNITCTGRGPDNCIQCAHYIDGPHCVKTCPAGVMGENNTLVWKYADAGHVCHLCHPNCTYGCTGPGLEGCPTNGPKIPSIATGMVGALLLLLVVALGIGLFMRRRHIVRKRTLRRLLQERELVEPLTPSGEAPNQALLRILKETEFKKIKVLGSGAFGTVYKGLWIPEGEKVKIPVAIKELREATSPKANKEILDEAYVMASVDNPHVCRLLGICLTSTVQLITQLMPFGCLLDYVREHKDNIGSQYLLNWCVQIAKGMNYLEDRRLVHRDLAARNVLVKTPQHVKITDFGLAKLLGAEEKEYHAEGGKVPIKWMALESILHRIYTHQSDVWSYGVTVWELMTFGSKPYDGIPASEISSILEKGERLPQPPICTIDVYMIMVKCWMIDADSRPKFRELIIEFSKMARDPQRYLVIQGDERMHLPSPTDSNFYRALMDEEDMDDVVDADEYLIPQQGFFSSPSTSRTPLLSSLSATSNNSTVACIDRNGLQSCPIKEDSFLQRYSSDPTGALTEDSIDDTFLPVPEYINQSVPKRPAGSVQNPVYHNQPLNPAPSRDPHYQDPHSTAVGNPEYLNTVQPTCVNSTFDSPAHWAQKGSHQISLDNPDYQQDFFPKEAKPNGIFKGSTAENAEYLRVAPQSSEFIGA

[12] = biological target: T3, Epidermal growth factor receptor; test: Inhibition of EGFR kinase (unknown origin) using poly(Glu:Tyr) as substrate
A-431 = test: Cytotoxicity against human A431 cells; type: functional
Tubulin [13] = test: Inhibition of tubulin polymerization (unknown origin); type: protein-complex assay, Homo sapiens
Bacillus anthracis = test: Antimicrobial activity against Bacillus anthracis; type: functional
[14] = Inhibition of AmpC beta-lactamase N289A mutant (unknown origin)
[15] = Inhibition of TEM-1 (unknown origin)
[16] = Inhibition of TEM-30 (unknown origin)
Tubulin (Homo sapiens) = Tubulin (Homo sapiens) (UniProt P68371+Q9H4B7+P0DPH7+P68366+Q13509+Q71U36+P04350+Q3ZCM7+P07437+P68363+Q9BQE3+Q6PEY2+Q13885+Q9BVA1+Q9BUF5); test: Displacement of [3H]colchicine from tubulin (unknown origin) at 5 uM; type: protein-complex assay

## CC(C)C[C@H](NC(=O)[C@H](Cc1ccccc1)NC(=O)[C@H](Cc1ccc2ccccc2c1)NC(=O)c1cnccn1)B1O[C@@H]2[C@H]3CC[C@H](C3(C)C)[C@]2(C)O1
[1]
  IC50: 0.22 nM
[2]
  IC50: > 20 nM
[3]
  IC50: > 20 nM

## COc1cc(/C=C\c2cccc(B(O)O)c2)cc(OC)c1
B16
  IC50: 1800 nM
[4]
  IC50: 2000 nM
Tubulin [5]
  IC50: > 100000 nM

## O=C(Cc1cccs1)N[C@H](B(O)O)c1ccccc1
[6]
  Ki: 35 nM

## O=C(/C=C/c1ccc(I)cc1)c1ccc(OCB(O)O)cc1
[7]
  IC50: 38000 nM
[8]
  IC50: 100000 nM

## C=CB(Oc1cccc2cccnc12)c1cccc(Cl)c1
Staphylococcus aureus
  MIC: 2 µg/mL (≈ 6.81 µM)
[9]
  MIC: 1 µg/mL (≈ 3.41 µM)
Bacillus subtilis
  MIC: 4 µg/mL (≈ 13.6 µM)
Moraxella catarrhalis
  MIC: 4 µg/mL (≈ 13.6 µM)

## COc1ccc(/C=C\c2cc(OC)c(OC)c(OC)c2)cc1O [COMBRETASTATIN A4]
MCF7
  IC50: 32 nM
[10]
  EC50: < 25 nM
B16
  IC50: 4.6 nM
[4]
  IC50: 8.5 nM

## OB(O)c1ccc(COc2ccc3ncnc(Nc4cccc(Cl)c4)c3c2)cc1
[11]
  inhibition: 55%
[12]
  IC50: 850 nM
A-431
  GI50: 1820 nM

## COc1ccc(/C=C/c2cc(OC)c(OC)c(OC)c2)cc1B(O)O
Tubulin [13]
  IC50: 7800 nM
MCF7
  IC50: 470 nM
[10]
  EC50: > 15000 nM

## Clc1cccc(B(Oc2cccc3cccnc23)c2cccc(Cl)c2)c1
Staphylococcus aureus
  MIC: 1 µg/mL (≈ 2.65 µM)
[9]
  MIC: 2 µg/mL (≈ 5.29 µM)
Bacillus subtilis
  MIC: 2 µg/mL (≈ 5.29 µM)
Moraxella catarrhalis
  MIC: 2 µg/mL (≈ 5.29 µM)

## CC(=O)OCC1=C(C(=O)O)N2C(=O)[C@@H](NC(=O)Cc3cccs3)[C@H]2SC1 [CEPHALOTHIN]
[6]
  Ki: 320 nM

## COc1cc(/C=C\c2ccc(B(O)O)cc2)cc(OC)c1
B16
  IC50: 12000 nM
[4]
  IC50: 9100 nM
Tubulin [5]
  IC50: 79000 nM

## CC[C@H]1OC(=O)[C@H](C)[C@@H](O[C@H]2C[C@@](C)(OC)[C@@H](O)[C@H](C)O2)[C@H](C)[C@@H](O[C@@H]2O[C@H](C)C[C@H](N(C)C)[C@H]2O)[C@](C)(O)C[C@@H](C)C(=O)[C@H](C)[C@@H](O)[C@]1(C)O [ERYTHROMYCIN]
Bacillus anthracis
  MIC90: 1.5 µg/mL (≈ 2.04 µM)

## COc1cc(/C=C/C(=O)c2cc(OC)c(OC)c(OC)c2)ccc1B(O)O
Tubulin [13]
  IC50: 31000 nM
MCF7
  IC50: 900 nM
[10]
  EC50: 16500 nM

## CC(C)C[C@H](NC(=O)[C@H](Cc1ccc(O)cc1)NC(=O)[C@H](Cc1ccccc1)NC(=O)c1cnccn1)B1O[C@@H]2[C@H]3CC[C@H](C3(C)C)[C@]2(C)O1
[1]
  IC50: 0.34 nM
[2]
  IC50: > 20 nM
[3]
  IC50: 5.39 nM

## CC(C)C[C@H](NC(=O)[C@H](Cc1ccc(O)cc1)NC(=O)[C@H](Cc1ccccc1)NC(=O)c1cnccn1)B(O)O
[1]
  IC50: 0.39 nM
[2]
  IC50: > 20 nM
[3]
  IC50: 4.01 nM

## CC(C)C[C@H](NC(=O)[C@H](Cc1ccc2ccccc2c1)NC(=O)[C@H](CC(C)C)NC(=O)c1cnccn1)B(O)O
[1]
  IC50: 0.08 nM
[2]
  IC50: > 20 nM
[3]
  IC50: 3.63 nM

## O=C(O)/C=C/c1cccc([C@H](NC(=O)Cc2cccs2)B(O)O)c1
[14]
  Ki: 2.8 nM
[15]
  Ki: 106 nM
[16]
  Ki: 3800 nM

## COc1ccc(/C=C\c2cc(OC)c(OC)c(OC)c2)cc1B(O)O
Tubulin [13]
  IC50: 1500 nM
MCF7
  IC50: 17 nM
[10]
  EC50: 58 nM
Tubulin (Homo sapiens)
  inhibition: 79%
B16
  IC50: 6.3 nM
[4]
  IC50: 13 nM
Tubulin [5]
  IC50: 22000 nM

## COc1cc(/C=C\c2ccc(OC)c(B(O)O)c2)cc(OC)c1
B16
  IC50: 19 nM
[4]
  IC50: 28 nM
Tubulin [5]
  IC50: 21000 nM

## COc1cc(/C=C\c2ccc(B(O)O)cc2)cc(OC)c1OC
B16
  IC50: 2600 nM
[4]
  IC50: 3200 nM
Tubulin [5]
  IC50: > 100000 nM
